For 59 compounds, IC50 results are on record in patent US20240217968A1, “PHARMACEUTICAL COMPOUND” (DUKE STREET BIO LIMITED, priority 2021, published 2024).

This assay has as its target T1, recombinant human Flag-tagged PARP7 (amino acids 456-657) (Homo sapiens, UniProt Q7Z3E1).
T1 construct: recombinant human Flag-tagged PARP7 (amino acids 456-657)
T1 sequence (Q7Z3E1 456-657): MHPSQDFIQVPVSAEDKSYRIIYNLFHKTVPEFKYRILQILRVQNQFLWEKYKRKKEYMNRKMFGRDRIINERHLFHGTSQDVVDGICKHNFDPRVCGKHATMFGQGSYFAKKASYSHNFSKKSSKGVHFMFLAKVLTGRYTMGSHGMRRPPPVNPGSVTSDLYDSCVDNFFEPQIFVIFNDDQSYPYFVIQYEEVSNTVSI
Kind of assay: PARP7 biochemical DELFIA assay (auto-MARylation). The settings on record: DELFIA readout, IC50 class. The essentials:
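Flag-PARP7 (456-657), 12.5-37.5 nM stock, captured on anti-FLAG wells, preincubated 30 min with compound, then auto-MARylated with biotin-NAD+ (15 μM stock) in HEPES pH 7.5/NaCl/DTT/BSA/Tween for 2-3 h at room temperature. NAD+ quench; Eu-streptavidin DELFIA read, Ex337/Em620 nm.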

Consider `Cn1c(=O)n(CCOCCC(=O)N2CCN(c3ncc(C(F)(F)F)cn3)CC2)c2cn[nH]c(=O)c21` [Compound 367], for which the IC50 (commonly the concentration needed to halve the response being measured) was ≤ 100 nM.
Turning to `CC(COCCC(=O)N1CCN(c2ncccc2F)CC1)n1nc(C(F)(F)F)c2c(=O)[nH]ncc21` (centres unmarked) [Compound 369], the IC50 was ≤ 100 nM.
Regarding `CC1CN(C(=O)CCOCCn2cc(C(F)(F)F)c3c(=O)[nH]ncc32)CCN1c1ncc(C(F)(F)F)cn1` (centres unmarked) [Compound 372], the IC50 was ≤ 100 nM.
Take `CC1CN(C(=O)CCOCCn2cc(C(F)(F)F)c3c(=O)[nH]ncc32)CCN1c1ncc(C(F)(F)F)cn1` (centres unmarked) [Compound 373]: the IC50 is ≤ 100 nM.
For the compound `CC(COCCC(=O)N1CCN(c2ccc(Cl)cn2)CC1)n1cc(C(F)(F)F)c2c(=O)[nH]ncc21` (centres unmarked) [Compound 374], the IC50 is ≤ 100 nM.
Under `CC(COCCC(=O)N1CCN(c2ccc(C(F)(F)F)cn2)CC1)n1cc(C(F)(F)F)c2c(=O)[nH]ncc21` (centres unmarked) [Compound 376] stands ≤ 100 nM.
With `CC(COCCC(=O)N1CCN(c2ccc(C(F)(F)F)cn2)CC1)n1cc(C(F)(F)F)c2c(=O)[nH]ncc21` (centres unmarked) [Compound 377], the IC50 is ≤ 100 nM.
Turning to `CC1(C)CN(c2ncc(C(F)(F)F)cn2)CCN1C(=O)CCOCCn1cc(C(F)(F)F)c2c(=O)[nH]ncc21` [Compound 378], the IC50 was ≤ 100 nM.
In the case of `O=C(CCOCCn1cc(C(F)(F)F)c2c(=O)[nH]ncc21)N1CCN(c2nc3ccccc3o2)CC1` [Compound 379], the IC50 is ≤ 100 nM.
As to `O=C(CCOCCn1cc(C(F)(F)F)c2c(=O)[nH]ncc21)N1CCN(c2nc3ccccc3[nH]2)CC1` [Compound 380], the IC50 was ≤ 100 nM.
As to `Cn1c(N2CCN(C(=O)CCOCCn3cc(C(F)(F)F)c4c(=O)[nH]ncc43)CC2)nc2ccccc21` [Compound 381], the IC50 was ≤ 100 nM.
Regarding `O=C(CCOCCn1cc(C(F)(F)F)c2c(=O)[nH]ncc21)N1CCN(c2nc3ccc(Cl)cc3o2)CC1` [Compound 382], the IC50 is ≤ 100 nM.
Regarding `O=C(CCOCCn1nc(C(F)(F)F)c2c(=O)[nH]ncc21)N1CCN(c2ncc(C(F)(F)F)o2)CC1` [Compound 383], the IC50 is ≤ 100 nM.
`O=C(CCOCCn1cc(C(F)(F)F)c2c(=O)[nH]ncc21)N1CCN(c2ncc(C(F)(F)F)o2)CC1` [Compound 384]: the IC50 was ≤ 100 nM.
On to `CN(C(=O)COCCn1cc(C(F)(F)F)c2c(=O)[nH]ncc21)C1CCN(c2ncc(C(F)(F)F)cn2)CC1` [Compound 385], for which the half-maximal inhibitory concentration (IC50) was ≤ 100 nM.
In the case of `CC(COCCC(=O)N1CCN(c2ncc(C(F)(F)F)cn2)CC1)n1nc(C(F)(F)F)c2c(=O)[nH]ccc21` (centres unmarked) [Compound 388], the IC50 was ≤ 100 nM.
Regarding `CC(COCCC(=O)N1CCN(c2ncc(C(F)(F)F)cn2)CC1)n1nc(C(F)(F)F)c2c(=O)[nH]ccc21` (centres unmarked) [Compound 389], the IC50 was ≤ 100 nM.
Turning to `O=C(CCOCCn1nc(C(F)(F)F)c2c(=O)[nH]ncc21)N1CCN(c2nnc(C(F)(F)F)[nH]2)CC1` [Compound 391], the IC50 is ≤ 100 nM.
For the compound `CC(COCCC(=O)N1CCN(c2nnc(C(F)(F)F)[nH]2)CC1)n1nc(C(F)(F)F)c2c(=O)[nH]ncc21` (centres unmarked) [Compound 392], the IC50 is 100 to 1000 nM.
Next, `O=C(CCOCCn1nc(C(F)(F)F)c2c(=O)[nH]ncc21)N1CCN(c2ncc3c(n2)NCCC3)CC1` [Compound 394]: ≤ 100 nM; `CC(COCCC(=O)N1CCN(c2ncc(C(F)(F)F)cn2)CC1)n1c(=O)n(C)c2c(=O)[nH]ncc21` (centres unmarked) [Compound 397]: ≤ 100 nM.
On to `CC(COCCC(=O)N1CCN(c2ncc(C(F)(F)F)cn2)CC1)n1c(=O)n(C)c2c(=O)[nH]ncc21` (centres unmarked) [Compound 398], for which the IC50 was ≤ 100 nM.
For the compound `CC(COCCC(=O)N1CCN(c2ncc(C(F)(F)F)cn2)CC1)c1ccc(Cl)c2c(=O)[nH]ncc12` (centres unmarked) [Compound 399], the IC50 lay in the range of 100 to 1000 nM.
`CC(COCCC(=O)N1CCN(c2ncc(C(F)(F)F)cn2)CC1)c1ccc(Cl)c2c(=O)[nH]ncc12` (centres unmarked) [Compound 400]: the IC50 is ≤ 100 nM.
In the case of `O=C(CCOCCn1nc(C(F)(F)F)c2c(=O)[nH]c(=O)[nH]c21)N1CCN(c2ncc(C(F)(F)F)cn2)CC1` [Compound 401], the IC50 is ≤ 100 nM.
Consider `Cc1nn(CCOCCC(=O)N2CCN(c3ncc(C(F)(F)F)cn3)CC2)c2[nH]c(=O)[nH]c(=O)c12` [Compound 402], for which the IC50 was ≤ 100 nM.
Turning to `O=C(CCOCCn1cc(C(F)(F)F)c2c(=O)[nH]c(=O)[nH]c21)N1CCN(c2ncc(C(F)(F)F)cn2)CC1` [Compound 403], the IC50 was ≤ 100 nM.
Regarding `Cc1cn(CCOCCC(=O)N2CCN(c3ncc(C(F)(F)F)cn3)CC2)c2[nH]c(=O)[nH]c(=O)c12` [Compound 404], the IC50 is ≤ 100 nM.
Under `O=C(c1cccc(Cn2nc(C(F)(F)F)c3c(=O)[nH]ncc32)c1)N1CCN(c2ncc(C(F)(F)F)cn2)CC1` [Compound 407] stands ≤ 100 nM.
For `[2H]C([2H])(Cn1nc(C(F)(F)F)c2c(=O)[nH]ncc21)OCCC(=O)N1CCN(c2ncc(C#N)cn2)CC1` [Compound 408], the IC50 was ≤ 100 nM.
As for `[2H]C([2H])(Cn1nc(C(F)(F)F)c2c(=O)[nH]ncc21)OCCC(=O)N1CCN(c2ncc(C(F)(F)F)cn2)CC1` [Compound 409], the IC50 was ≤ 100 nM.
With `O=C(CCOCCc1c(Cl)ccc2c(=O)[nH]ncc12)N1CCN(c2ncc(C(F)(F)F)cn2)CC1` [Compound 410], the IC50 is ≤ 100 nM.
Consider `CC(COCCn1cc(C(F)(F)F)c2c(=O)[nH]ncc21)C(=O)N1CCN(c2ncc(C(F)(F)F)cn2)CC1` (centres unmarked) [Compound 412], for which the IC50 is ≤ 100 nM.
Under `O=C(CCOCCn1c(=O)ccc2c(=O)[nH]ncc21)N1CCN(c2ncc(C(F)(F)F)cn2)CC1` [Compound 413] stands ≤ 100 nM.
`CC(COCCC(=O)N1CCN(c2ncc(C#N)cn2)CC1)c1ccc(Cl)c2c(=O)[nH]ncc12` (centres unmarked) [Compound 415]: the IC50 was ≤ 100 nM.
Consider `CC(COCCC(=O)N1CCN(c2ccc(C#N)cn2)CC1)c1ccc(Cl)c2c(=O)[nH]ncc12` (centres unmarked) [Compound 417], for which the IC50 was ≤ 100 nM.
As to `[2H]C([2H])(OCCC(=O)N1CCN(c2ncc(C(F)(F)F)cn2)CC1)C(C)n1nc(C(F)(F)F)c2c(=O)[nH]ncc21` (centres unmarked) [Compound 422], the IC50 is ≤ 100 nM.
As to `O=C(CCOCC(F)(F)c1cccc2c(=O)[nH]ncc12)N1CCN(c2ncc(C(F)(F)F)cn2)CC1` [Compound 424], the IC50 was ≤ 100 nM.
Next, `CC(C)(COCCC(=O)N1CCN(c2ncc(C(F)(F)F)cn2)CC1)c1cccc2c(=O)[nH]ncc12` [Compound 425]: 100 to 1000 nM.
With `O=C(CCOCC(c1cccc2c(=O)[nH]ncc12)C(F)(F)F)N1CCN(c2ncc(C(F)(F)F)cn2)CC1` (centres unmarked) [Compound 426], the IC50 lay in the range of 1000 to 10000 nM.
As to `N#Cc1nn(CCOCCC(=O)N2CCN(c3ncc(C(F)(F)F)cn3)CC2)c2cn[nH]c(=O)c12` [Compound 428], the IC50 was ≤ 100 nM.
Next, `O=C(CCOCCn1nc(C(F)(F)F)c2c(=O)[nH]ncc21)N1CCN(C2CN(CC(F)(F)F)C2)CC1` [Compound 433]: 1000 to 10000 nM; `O=C(CCOCCn1nc(C(F)(F)F)c2c(=O)[nH]ncc21)N1CCN(c2nnc(C(F)(F)F)o2)CC1` [Compound 434]: ≤ 100 nM.
In the case of `CC(COCCC(=O)N1CCN(c2ncc(C(F)(F)F)cn2)CC1)n1nc(C(F)F)c2c(=O)[nH]ncc21` (centres unmarked) [Compound 435], the IC50 is ≤ 100 nM.
`CC(COCCC(=O)N1CCN(c2ccc(C#N)cn2)CC1)n1nc(C(F)F)c2c(=O)[nH]ncc21` (centres unmarked) [Compound 438]: the IC50 was ≤ 100 nM.
Turning to `CC(COCCC(=O)N1CCN(c2ncc(C#N)cn2)CC1)n1cc(C(F)F)c2c(=O)[nH]ncc21` (centres unmarked) [Compound 440], the IC50 is ≤ 100 nM.
Next, `O=C(OCCCCn1nc(C(F)(F)F)c2c(=O)[nH]ncc21)N1CCN(c2ncc(C(F)(F)F)cn2)CC1` [Compound 441]: ≤ 100 nM.
Under `O=C(Cn1nc(C(F)(F)F)c2c(=O)[nH]ncc21)N1CCC(C(=O)N2CCN(c3ncc(C(F)(F)F)cn3)CC2)C1` (centres unmarked) [Compound 442] stands 1000 to 10000 nM.
Under `O=C(Cn1nc(C(F)(F)F)c2c(=O)[nH]ncc21)N1CCC(C(=O)N2CCN(c3ncc(C(F)(F)F)cn3)CC2)C1` (centres unmarked) [Compound 443] stands 1000 to 10000 nM; under `N#Cc1ccc(N2CCN(C(=O)CCOCC(F)(F)c3cccc4c(=O)[nH]ncc34)CC2)nc1` [Compound 446], ≤ 100 nM.
Regarding `O=c1[nH]ncc2c1c(C(F)(F)F)nn2CCOCCS(=O)(=O)N1CCN(c2ncc(C(F)(F)F)cn2)CC1` [Compound 447], the IC50 is ≤ 100 nM.
In the case of `CC(COCCC(=O)N1CCN(c2ccc(C#N)cn2)CC1)n1cc(C(F)F)c2c(=O)[nH]ncc21` (centres unmarked) [Compound 449], the IC50 is ≤ 100 nM.
Next, `CC(COCCC(=O)N1CCN(c2ncc(Cl)cn2)CC1)n1cc(C(F)F)c2c(=O)[nH]ncc21` (centres unmarked) [Compound 450]: ≤ 100 nM; `CC(COCCC(=O)N1CCN(c2ncc(Cl)cn2)CC1)n1cc(C(F)F)c2c(=O)[nH]ncc21` (centres unmarked) [Compound 451]: ≤ 100 nM.
Regarding `CC(CCOCC(=O)N1CCN(c2ncc(Cl)cn2)CC1)n1nc(C(F)(F)F)c2c(=O)[nH]ncc21` (centres unmarked) [Compound 452], the IC50 was ≤ 100 nM.
As to `CC(CCOCC(=O)N1CCN(c2ncc(Cl)cn2)CC1)n1nc(C(F)(F)F)c2c(=O)[nH]ncc21` (centres unmarked) [Compound 453], the IC50 was ≤ 100 nM.
For the compound `CC(CCOCC(=O)N1CCN(c2ncc(C(F)(F)F)cn2)CC1)n1cc(C(F)(F)F)c2c(=O)[nH]ncc21` (centres unmarked) [Compound 454], the IC50 is ≤ 100 nM.
Consider `CC(COCC(=O)NC1CCN(c2ncc(C(F)(F)F)cn2)CC1)n1cc(C(F)(F)F)c2c(=O)[nH]ncc21` (centres unmarked) [Compound 458], for which the IC50 was ≤ 100 nM.
As to `CC(COCC(=O)N(C)C1CCN(c2ncc(C(F)(F)F)cn2)CC1)n1cc(C(F)(F)F)c2c(=O)[nH]ncc21` (centres unmarked) [Compound 463], the IC50 was ≤ 100 nM.
